Results: article PMC11156913, “New sulfonamide-based glycosides incorporated 1,2,3-triazole as cytotoxic agents through VEGFR-2 and carbonic anhydrase inhibitory activity” (Scientific Reports, 2024)

Tests used:
[1] = system: liver HepG-2 cancer cell line; assay: In vitro cytotoxic activity (MTT assay), HepG-2; conditions: for IC50 / inhibition at 100 µM: Homo sapiens; for IC50: HepG2, read-out: IC50 (mean ± SD) HepG-2; for inhibition at 100 µM: HepG2, 48 h, read-out: % inhibition ± SD HepG-2
Source text: (§1) The supplemental file contained extra details.

[2] = system: breast MCF-7 cancer cell line; assay: In vitro cytotoxic activity (MTT assay), MCF-7; assay type: cell-based, human; conditions: for inhibition at 100 µM / IC50: Homo sapiens, MCF7; for inhibition at 100 µM: 48 h, read-out: % inhibition ± SD MCF-7; for IC50: MCF-7 cells, MTT, read-out: IC50 (mean ± SD) MCF-7
Source text: as §1

[3] = system: colorectal HCT-116 cancer cell line; assay: In vitro cytotoxic activity (MTT assay), HCT-116; assay type: cell-based, human; conditions: for inhibition at 100 µM: HCT-116, 48 h, read-out: % inhibition ± SD HCT-116
Source text: as §1

[4] = system: lung A-549 cancer cell line; assay: In vitro cytotoxic activity (MTT assay), A-549; conditions: for inhibition at 100 µM: A549, 48 h, read-out: % inhibition ± SD A-549
Method: Exponentially, cells were placed in 10^4 cells/ well for 24 h, and then add fresh medium which containing different concentration of the tested sample. Serial two-fold dilution of the tested sample were added using a multichannel pipette. […] Rinse the wells using water until no stain. After that, add 30% glacial acetic acid to all wells with shaking plates on Microplate reader (TECAN, Inc.) to measure the absorbance, using a test wavelength of 490 nm. Besides, compare the treated samples with the control cell.

[5] = system: retinal pigment epithelial normal RPE-1 cell line; assay: Cytotoxic activity (MTT assay) against normal cell line RPE-1; assay type: cell-based; conditions: Homo sapiens, normal RPE-1 cells, read-out: IC50 (mean ± SD) RPE-1
Source text: Furthermore, the MTT assay was utilized to estimate the cytotoxic activity of the extremely potent derivatives 4, 7 and 9 against the normal cell line RPE-1, with the aim of examining their safety profiles (Table 1). […] They could therefore be thought of as safe cytotoxic agents.
as §1

VEGFR-2 = VEGFR-2 (Homo sapiens, UniProt P35968); assay: In vitro inhibitory assessment against VEGFR-2 (ELISA, MCF-7 cell homogenates); assay type: cell-based; conditions: read-out: IC50 (mean ± SD) VEGFR-2
VEGFR-2, sequence (P35968 20-1356): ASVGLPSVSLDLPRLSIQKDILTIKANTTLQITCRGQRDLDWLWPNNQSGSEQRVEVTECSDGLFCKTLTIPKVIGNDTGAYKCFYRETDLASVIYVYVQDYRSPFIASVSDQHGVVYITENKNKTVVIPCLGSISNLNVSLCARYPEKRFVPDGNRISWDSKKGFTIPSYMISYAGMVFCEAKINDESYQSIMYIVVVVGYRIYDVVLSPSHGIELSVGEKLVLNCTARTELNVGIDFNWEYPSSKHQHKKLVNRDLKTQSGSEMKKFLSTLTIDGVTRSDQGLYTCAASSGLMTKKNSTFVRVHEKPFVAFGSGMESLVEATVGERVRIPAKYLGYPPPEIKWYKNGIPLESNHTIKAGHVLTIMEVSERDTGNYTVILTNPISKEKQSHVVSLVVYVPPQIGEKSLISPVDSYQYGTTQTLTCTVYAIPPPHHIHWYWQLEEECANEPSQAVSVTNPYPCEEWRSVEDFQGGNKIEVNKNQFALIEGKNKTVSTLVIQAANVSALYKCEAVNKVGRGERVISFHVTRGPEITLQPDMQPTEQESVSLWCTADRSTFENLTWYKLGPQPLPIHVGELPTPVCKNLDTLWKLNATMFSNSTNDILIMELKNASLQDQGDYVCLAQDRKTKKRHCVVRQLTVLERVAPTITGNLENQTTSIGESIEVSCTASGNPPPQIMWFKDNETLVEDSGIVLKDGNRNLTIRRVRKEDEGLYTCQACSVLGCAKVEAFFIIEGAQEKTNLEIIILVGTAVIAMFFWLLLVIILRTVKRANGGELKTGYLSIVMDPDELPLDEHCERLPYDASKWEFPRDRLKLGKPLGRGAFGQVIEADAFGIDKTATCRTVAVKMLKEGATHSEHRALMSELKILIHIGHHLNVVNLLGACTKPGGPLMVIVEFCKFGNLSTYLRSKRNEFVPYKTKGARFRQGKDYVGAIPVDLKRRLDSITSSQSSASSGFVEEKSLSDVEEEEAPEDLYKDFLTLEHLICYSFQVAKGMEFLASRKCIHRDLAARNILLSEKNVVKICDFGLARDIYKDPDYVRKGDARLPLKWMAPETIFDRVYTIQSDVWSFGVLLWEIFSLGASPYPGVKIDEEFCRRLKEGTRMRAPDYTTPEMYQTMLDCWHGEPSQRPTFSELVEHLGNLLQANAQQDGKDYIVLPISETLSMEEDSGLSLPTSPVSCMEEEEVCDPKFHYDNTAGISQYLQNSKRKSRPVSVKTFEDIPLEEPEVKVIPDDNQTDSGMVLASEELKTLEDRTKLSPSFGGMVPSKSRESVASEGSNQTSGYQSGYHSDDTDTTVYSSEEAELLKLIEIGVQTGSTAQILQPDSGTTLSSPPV
Method: (§2) There was further information in the supplemental file.
The cells were harvested and the homogenates were prepared in saline using a tight pestle homogenizer until complete cell disruption. The kit uses a double-antibody sandwich enzyme-linked immunosorbent assay (ELISA) to determine the level of human VEGFR-2 in samples. A monoclonal antibody for VEGFR-2 was pre-coated onto 96-well plates. The test samples are added to the wells and a biotinylated detection polyclonal antibody from goat specific for VEGFR-2 was added subsequently followed by washing with PBS buffer. Avidin-Biotin-Peroxidase complex was added and the unbound conjugates were washed away with PBS buffer. HRP substrate TMB was used to visualize HRP enzymatic reaction. TMB was catalyzed by HRP to produce a blue color product that changed into yellow after adding acidic stop solution. The density of yellow color is proportional to the human VEGFR-2 amount of the sample captured in the plate. The chroma of color and the concentration of the human VEGFR-2 of the samples were positively correlated and the optical density was determined at 450 nm. The level of human VEGFR-2 in samples was calculated (pg/ml) as duplicate determinations from the standard curve. Percent inhibition was calculated in comparison to control untreated cells.

hCA IX = target: T1, hCA IX (Homo sapiens, UniProt Q16790); assay: Carbonic anhydrase inhibition, stopped-flow CO2 hydration, hCA IX; assay type: biochemical; conditions: read-out: IC50 (mean ± SD) Carbonic anhydrase isoforms hCA IX
T1 construct: made in house
Method: as §2
(§3) An applied photophysics stopped-flow instrument was used for assaying the CA-catalyzed CO2 hydration activity. […] The CO2 concentrations ranged from 1.7 to 17 mM for the determination of the kinetic parameters and inhibition constants. For each inhibitor, at least six traces of the initial 5–10% of the reaction were used for determining the initial rate. The uncatalyzed rates were determined in the same manner and subtracted from the total observed rates. Stock solutions of inhibitor (0.1 mM) were prepared in distilled-deionized water, and dilutions up to 0.01 nM were done thereafter with distilled-deionized water. Inhibitor and enzyme solutions were preincubated together for 15 min at room temperature before assay in order to allow for the formation of the E-I complex. The inhibition constants were obtained by nonlinear least-squares methods using PRISM 3, and the Cheng –Prusoff equation, and represent the mean from at least three different determinations. All CA isoforms were recombinant ones obtained in-house.

hCA XII = target: T2, hCA XII (Homo sapiens, UniProt O43570); assay: Carbonic anhydrase inhibition, stopped-flow CO2 hydration, hCA XII; assay type: biochemical; conditions: read-out: IC50 (mean ± SD) Carbonic anhydrase isoforms hCA XII
T2 construct: made in house
T2 sequence (O43570 25-354): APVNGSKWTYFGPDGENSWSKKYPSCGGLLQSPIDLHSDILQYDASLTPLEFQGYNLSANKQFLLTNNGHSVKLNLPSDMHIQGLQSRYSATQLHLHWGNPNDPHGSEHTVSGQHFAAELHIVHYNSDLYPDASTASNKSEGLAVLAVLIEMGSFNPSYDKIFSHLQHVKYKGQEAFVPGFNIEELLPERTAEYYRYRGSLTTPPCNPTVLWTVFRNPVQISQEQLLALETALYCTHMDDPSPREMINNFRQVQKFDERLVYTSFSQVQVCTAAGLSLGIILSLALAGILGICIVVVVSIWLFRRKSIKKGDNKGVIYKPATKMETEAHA
Method: as §2, §3

Row | melting point | SMILES | percentage cytotoxicity on HepG-2 ([1]; 12.5 µM) | percentage cytotoxicity on HepG-2 ([1]; 25 µM) | percentage cytotoxicity on HepG-2 ([1]; 50 µM) | percentage cytotoxicity on HepG-2 ([1]; 100 µM) | IC50 [1] | inhibition at 100 µM ([2]; 100 µM) | inhibition at 100 µM ([3]; Homo sapiens, 100 µM) | inhibition at 100 µM ([4]; Homo sapiens) | inhibition at 100 µM [1] | percentage cytotoxicity on MCF-7 ([2]; 12.5 µM) | percentage cytotoxicity on MCF-7 ([2]; 25 µM) | percentage cytotoxicity on MCF-7 ([2]; 50 µM) | percentage cytotoxicity on MCF-7 ([2]; 100 µM) | IC50 [2] | further results
1 | 47 to 49 °C | CCCCNS(=O)(=O)c1ccc(N=[N+]=[N-])cc1 [Compound 3, 4-Azido-N-butylbenzenesulfonamide] | 3.76±5.32% | 19.08±1.88% | 49.40±1.91% | 71.40±0.91% | 57.6 ± 12.2 µM | 51.97 ± 0.29% | 16.7 ± 0.6% | 20.47 ± 0.15% | – | – | – | – | – | – | –
2 | – | CCCCNS(=O)(=O)c1ccc(-n2cc(CO[C@@H]3O[C@H](COC(C)=O)[C@H](OC(C)=O)[C@H](OC(C)=O)[C@H]3OC(C)=O)nn2)cc1 [Compound 6, N-butyl-4-(4-([2,3,4,6-tetra-O-acetyl-β-D-galactopyranosyl]oxymethyl)-1H-1,2,3-triazol-1-yl)benzenesulfonamide] | – | – | – | – | – | 37.5 ± 0.52% | 0% | 32.53 ± 0.15% | 8.93 ± 0.74% | – | – | – | – | – | –
3 | – | CC(=O)OC[C@H]1O[C@@H](OCc2cn(-c3ccc(S(=O)(=O)NC4CCCCC4)cc3)nn2)[C@H](OC(C)=O)[C@@H](OC(C)=O)[C@H]1OC(C)=O [Compound 7, N-cyclohexyl-4-(4-([2,3,4,6-tetra-O-acetyl-β-D-galactopyranosyl]oxymethyl)-1H-1,2,3-triazol-1-yl)benzenesulfonamide] | 84.09±0.85% | 85.07±0.05% | 85.58±0.88% | 87.60±1.73% | 10.5 ± 0.13 µM | 98.89 ± 0.19% | 75.7 ± 0.96% | 94.1 ± 0.51% | – | 30.37±3.66% | 55.90±1.44% | 88.77±2.70% | 98.89±0.19% | 20.3 ± 0.66 µM | percentage cytotoxicity on HCT-116 ([3]; 12.5 µM): 32.50±1.25%; percentage cytotoxicity on HCT-116 ([3]; 25 µM): 48.80±0.95%; percentage cytotoxicity on HCT-116 ([3]; 50 µM): 50.70±0.70%; percentage cytotoxicity on HCT-116 ([3]; 100 µM): 75.70±0.96%; IC50 ([3]; Homo sapiens, HCT-116 cells, MTT, read-out: IC50 (mean ± SD) HCT-116): 32 ± 0.42 µM; IC50 [5]: 82.58 ± 0.52 µM; IC50 (VEGFR-2): 1.33 ± 0.1 µM; IC50 (hCA IX): 0.066 µM; IC50 (hCA XII): 0.0076 µM; percentage cytotoxicity on A-549 ([4]; 12.5 µM): 12.60±0.82%; percentage cytotoxicity on A-549 ([4]; 25 µM): 29.31±0.02%; percentage cytotoxicity on A-549 ([4]; 50 µM): 60.23±1.47%; percentage cytotoxicity on A-549 ([4]; 100 µM): 94.10±0.51%; IC50 ([4]; Homo sapiens, A549, read-out: IC50 (mean ± SD) A-549): 20.4 ± 0.28 µM
4 | – | CCCCNS(=O)(=O)c1ccc(-n2cc(CO[C@@H]3OC[C@@H](OC(C)=O)[C@H](OC(C)=O)[C@H]3OC(C)=O)nn2)cc1 [Compound 8, N-butyl-4-(4-([2,3,4-tri-O-acetyl-β-D-xylopyranosyl]oxymethyl)-1H-1,2,3-triazol-1-yl)benzenesulfonamide] | 23.15±0.43% | 32.80±2.12% | 50.73±1.45% | 69.17±0.21% | 47 ± 0.51 µM | 66 ± 0.69% | 41.05 ± 0.18% | 58.1 ± 0.56% | – | 29.56±1.66% | 36.13±2.06% | 49.80±0.41% | 66.04±0.69% | 46.49 ± 0.42 µM | –
5 | 100 to 102 °C | CCCCNS(=O)(=O)c1ccc(-n2cc(CO[C@@H]3O[C@H](CO)[C@H](O)[C@H](O)[C@H]3O)nn2)cc1 [Compound 10, N-butyl-4-(4-([β-D-Galactopyranosyl]oxymethyl)-1H-1,2,3-triazol-1-yl)benzenesulfonamide] | – | – | – | – | – | 25.4 ± 0.91% | 8.91 ± 2.7% | 32 ± 0.84% | 35.9 ± 0.42% | – | – | – | – | – | –
